Results reported in PMC12856912, “Structure-Guided Semisynthesis of Blasticidin S–Amicetin Chimeras as Selective Ribosome Inhibitors” (Journal of the American Chemical Society, 2026).
Converted amounts (≈) assume the structure as drawn.

Tests used:
[1] = Cytotoxicity assay (MTS/PMS); assay type: cell-based; conditions: monkey, Vero cells (monkey kidney epithelial cells); 24 h treatment, MTS/PMS, average of three biological replicates; read-out: CC50 against Vero cells
Outline: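 Vero cells were allowed to adhere for 24 h in DMEM with 10% FBS at 37 °C, then exposed to serial compound dilutions for 24 h. Viability was measured by MTS/PMS (4 h, absorbance at 490 nm) and normalized to vehicle. CC50 is the concentration giving 50% viability, averaged over three biological replicates.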

bacteria = experiment: Antibacterial assays, summary statements over the panel; assay type: cell-based; conditions: against most S. aureus strains
Description: Media and solutions were autoclaved or sterile filtered prior to use and mani pulations were carri ed out in a laminar flow hood. Antibacterial t esting was performed in polypropylene 96-well flat bottom plates. The minimal inhibitory concentration of blasticidin S (1) hydrochloride, methyl ester (3) trihydrochloride, P10 (2) tri-T FA , phenet hyl amide (4) tri -T FA , an d blastimidines M 19– 22, A, 29–32, P 37–40, and C 43–46 (salt forms as described in the te xt) were assessed against Staphylococcus aureus ΔNorA, S. aureus ATCC 6538P, methicillin-resistant S. aureus (MRSA) ATCC 43300, Enterococcus faecalis ATCC 29212, vancomycin- resistant Enterococcus, Klebsiella pneumoniae ATCC 29665, Pseudomonas aeruginosa,and Acinetobacter baumannii ATCC 17978 using serial dilutions. Doxycycline (Gold Bio) as a positive control and the vehicle as a negative control. Stock solutions of each compound were prepared at 2.56 mg/mL in 50% DMSO/water and serially diluted in 50% DMSO/water to create master plates. […]
Growth controls (wells with inoculated media but no vehicle or test compounds) were included to assess any potential toxicity from the vehicle. […] Inh ibition was determined by measuring the optical density at 600 nm (OD60 0) with a Cytation 3 pl ate read er (BioTek). […]

[2] = test system: Methicillin resistant S. aureus (MRSA) USA300; experiment: Antibacterial MIC assay, serial dilution; assay type: cell-based, Staphylococcus aureus
[3] = test system: Escherichia coli BAA-2452; experiment: Antibacterial MIC assay, serial dilution; assay type: cell-based; conditions: BAA2452, read-out: MIC Escherichia coli BAA-2452
[4] = test system: Methicillin resistant Staphylococcus epidermidis (MRSE) ATCC 35984 NRS101; experiment: Antibacterial MIC assay, serial dilution; assay type: cell-based
[5] = test system: Vancomycin resistant E. faecalis NR-31972 (VRE); experiment: Antibacterial MIC assay, serial dilution; assay type: cell-based, Enterococcus faecalis
Outline: (§1)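 Broth microdilution in cation-adjusted Mueller-Hinton broth with an inoculum at OD600 0.004 and final compound levels of 128–1 μg/mL. Plates ran 16–18 h at 37 °C, or 24 h for VRE. OD600 was normalized to controls, and MIC = lowest concentration inhibiting >90% growth; two biological replicates were run in duplicate.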

S. aureus ATCC 6538P = experiment: Antibacterial MIC assay, serial dilution; assay type: cell-based, Staphylococcus aureus
Outline: as §1

S. aureus ΔNorA = experiment: Antibacterial MIC assay, serial dilution; assay type: cell-based, Staphylococcus aureus
Outline: as §1

MRSA ATCC 43300 = experiment: Antibacterial MIC assay, serial dilution; assay type: cell-based, Staphylococcus aureus
Outline: as §1

[6] = test system: Enterococcus faecalis ATCC 29212; experiment: Antibacterial MIC assay, serial dilution; assay type: cell-based
[7] = test system: Vancomycin resistant Enterococcus faecium NR-31909 (VRE); experiment: Antibacterial MIC assay, serial dilution; assay type: cell-based
Outline: as §1

[8] = test system: Acinetobacter baumannii ATCC 17978; experiment: Antibacterial MIC assay, serial dilution; assay type: cell-based; conditions: ATCC17978, range from biological replicates
Outline: as §1

[9] = test system: Klebsiella pneumoniae ATCC 29665; experiment: Antibacterial MIC assay, serial dilution; assay type: cell-based
Outline: as §1

Pseudomonas aeruginosa = experiment: Antibacterial MIC assay, serial dilution; assay type: cell-based
Outline: as §1

## CNc1ccc(C(=O)Nc2ccn([C@H]3C=C[C@H](NC(=O)C[C@@H](N)CCN(C)C(=N)N)[C@@H](C(=O)OC)O3)c(=O)n2)cc1 [Blastimidine M3]
[1]
  CC50 at 24 h: 205 µg/mL (≈ 360 µM)
bacteria
  Selectivity index (SI): > 25
[2]; CC50 Vero cells / MIC
  Selectivity index (CC50/MIC) MRSA USA300: 26
[2]; Staphylococcus aureus, read-out: MIC Methicillin resistant S. aureus (MRSA) USA300
  MIC: 8 µg/mL (≈ 14 µM)
[3]
  MIC: 32 µg/mL (≈ 56.2 µM)
[4]; CC50 Vero cells / MIC
  Selectivity index (CC50/MIC) MRSE 35984: 26
[4]; Staphylococcus epidermidis, read-out: MIC Methicillin resistant Staphylococcus epidermidis (MRSE) ATCC 35984 NRS101
  MIC: 8 µg/mL (≈ 14 µM)
[5]; CC50 Vero cells / MIC
  Selectivity index (CC50/MIC) VRE NR-31972: 13
[5]; Enterococcus faecalis, VRE, 24 h, read-out: MIC Vancomycin resistant E. faecalis NR-31972 (VRE)
  MIC: 16 µg/mL (≈ 28.1 µM)
S. aureus ATCC 6538P; CC50 Vero cells / MIC
  Selectivity index (CC50/MIC) S. aureus 6538P: 26
S. aureus ATCC 6538P; Staphylococcus aureus, ATCC 6538P / ATCC 6539P, read-out: MIC S. aureus ATCC 6539P
  MIC: 8 µg/mL (≈ 14 µM)
S. aureus ΔNorA; CC50 Vero cells / MIC
  Selectivity index (CC50/MIC) S. aureus ΔNorA: 26
S. aureus ΔNorA; Staphylococcus aureus, read-out: MIC S. aureus ∆NorA
  MIC: 8 µg/mL (≈ 14 µM)
MRSA ATCC 43300; CC50 Vero cells / MIC
  Selectivity index (CC50/MIC) MRSA 43300: 13
MRSA ATCC 43300; Staphylococcus aureus, read-out: MIC MRSA ATCC 43300
  MIC: 16 µg/mL (≈ 28.1 µM)
[6]; CC50 Vero cells / MIC
  Selectivity index (CC50/MIC) E. faecalis 29212: 13
[6]; Enterococcus faecalis, ATCC 29112 / ATCC 29212, 24 h, read-out: MIC E. faecalis ATCC 29112
  MIC: 16 µg/mL (≈ 28.1 µM)
[7]; CC50 Vero cells / MIC
  Selectivity index (CC50/MIC) VRE NR-31909: 3.2
[7]; Enterococcus faecium, VRE, 24 h, read-out: MIC Vancomycin resistant Enterococcus faecium NR-31909 (VRE)
  MIC: 64 µg/mL (≈ 112 µM)
[8]
  MIC: > 128 µg/mL
[9]; CC50 Vero cells / MIC
  Selectivity index (CC50/MIC) K. pneumoniae: 6.4
[9]; Klebsiella pneumoniae, ATCC29665, range from biological replicates, read-out: MIC K. pneumoniae ATCC-29665
  MIC: 32 µg/mL (≈ 56.2 µM)
Pseudomonas aeruginosa; CC50 Vero cells / MIC
  Selectivity index (CC50/MIC) P. aeruginosa: <1.6
Pseudomonas aeruginosa; Pseudomonas aeruginosa, range from biological replicates, read-out: MIC P. aeruginosa
  MIC: > 128 µg/mL
